Results taken from paper PMC9683716 (Science Advances, 2022).
Substitutions are numbered along the chain they refer to. Where “and” joins values, the source holds several entries; their conditions need not be identical. Equal values may be shown once.

Columns and labels:
Drosophila flies = test: Climbing assay; assay type: in vivo, Drosophila melanogaster
[1] = biological target: T1, recombinant Naam A265E mutant (Drosophila melanogaster, UniProt Q9VDU7, A265E)
T1 sequence (Q9VDU7 1-357 A265E): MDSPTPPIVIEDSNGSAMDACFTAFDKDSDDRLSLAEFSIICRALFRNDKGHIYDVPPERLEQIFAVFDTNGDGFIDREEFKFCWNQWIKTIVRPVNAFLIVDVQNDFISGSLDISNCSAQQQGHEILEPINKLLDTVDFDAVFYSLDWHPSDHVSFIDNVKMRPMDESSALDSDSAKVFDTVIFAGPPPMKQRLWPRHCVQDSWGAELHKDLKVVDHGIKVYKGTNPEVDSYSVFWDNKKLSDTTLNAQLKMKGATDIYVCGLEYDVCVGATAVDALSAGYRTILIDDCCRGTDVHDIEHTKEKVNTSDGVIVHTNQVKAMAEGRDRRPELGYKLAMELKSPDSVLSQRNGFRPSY

[2] = system: C. elegans N2 Bristol strain; test: Egg-laying assay; assay type: in vivo, Caenorhabditis elegans; details: wild-type nematodes, high concentrations
[3] = biological target: T2, recombinant Drosophila Naam (Drosophila melanogaster, UniProt Q9VDU7); test: Naam enzyme activity and inhibition assay; assay type: biochemical
T2 sequence (Q9VDU7 1-357): T1 sequence (Q9VDU7 1-357 A265E) with E265A

[4] = biological target: T3, recombinant Naam T294E mutant (Drosophila melanogaster, UniProt Q9VDU7, T294E); assay type: biochemical
T3 sequence (Q9VDU7 1-357 T294E): T1 sequence (Q9VDU7 1-357 A265E) with E265A, T294E

[5] = biological target: Myzus persicae (aphid) Naam; test: Naam inhibition assay, aphid Naam; assay type: biochemical
[6] = biological target: Nilaparvata lugens (planthopper) Naam; test: Naam inhibition assay, planthopper Naam; assay type: biochemical
[7] = biological target: T4, Aedes albopictus (mosquito) Naam (Aedes albopictus, UniProt A0ABM2A4C4); test: Naam inhibition assay, mosquito Naam; assay type: biochemical
T4 sequence (A0ABM2A4C4 1-377): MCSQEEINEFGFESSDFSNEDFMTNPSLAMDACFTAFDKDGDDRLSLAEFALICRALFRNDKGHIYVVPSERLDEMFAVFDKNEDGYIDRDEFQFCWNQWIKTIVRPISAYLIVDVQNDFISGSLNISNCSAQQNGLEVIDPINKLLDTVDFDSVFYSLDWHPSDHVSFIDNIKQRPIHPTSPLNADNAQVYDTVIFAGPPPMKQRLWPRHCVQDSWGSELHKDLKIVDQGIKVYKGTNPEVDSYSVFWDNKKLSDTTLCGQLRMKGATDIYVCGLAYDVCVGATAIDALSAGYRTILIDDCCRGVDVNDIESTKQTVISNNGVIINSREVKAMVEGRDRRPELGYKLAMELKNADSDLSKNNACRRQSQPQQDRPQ

[8] = biological target: T5, Apis mellifera (honey bee) Naam2 (Apis mellifera, UniProt A0A7M7MP11); test: Naam enzyme activity and inhibition assay, honey bee Naam2; assay type: biochemical
T5 sequence (A0A7M7MP11 1-346): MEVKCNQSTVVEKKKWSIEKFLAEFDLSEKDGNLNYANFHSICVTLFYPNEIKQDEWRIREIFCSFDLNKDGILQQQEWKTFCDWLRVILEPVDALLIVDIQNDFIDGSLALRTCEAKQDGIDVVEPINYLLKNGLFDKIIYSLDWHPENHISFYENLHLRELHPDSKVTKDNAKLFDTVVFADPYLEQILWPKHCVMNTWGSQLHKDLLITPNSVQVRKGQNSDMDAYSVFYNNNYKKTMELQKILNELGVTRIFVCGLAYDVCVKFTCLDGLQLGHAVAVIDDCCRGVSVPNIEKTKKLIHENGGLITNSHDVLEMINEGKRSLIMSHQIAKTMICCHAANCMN

C. elegans PNC-1 = biological target: T6, C. elegans PNC-1 (Caenorhabditis elegans, UniProt Q9N426); test: Naam inhibition assay, C. elegans PNC-1; assay type: biochemical
T6 sequence (Q9N426 25-335): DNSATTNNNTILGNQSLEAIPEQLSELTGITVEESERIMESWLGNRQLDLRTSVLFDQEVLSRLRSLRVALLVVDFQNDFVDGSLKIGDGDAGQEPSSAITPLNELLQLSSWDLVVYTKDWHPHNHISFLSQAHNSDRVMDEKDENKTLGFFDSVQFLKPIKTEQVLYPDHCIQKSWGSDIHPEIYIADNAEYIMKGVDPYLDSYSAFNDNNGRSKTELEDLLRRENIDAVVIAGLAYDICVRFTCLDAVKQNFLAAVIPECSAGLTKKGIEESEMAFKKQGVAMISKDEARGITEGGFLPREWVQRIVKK

C. elegans PNC-2 = biological target: T7, C. elegans PNC-2 (Caenorhabditis elegans, UniProt Q7YTI0); test: Naam inhibition assay, C. elegans PNC-2; assay type: biochemical
T7 sequence (Q7YTI0 1-316): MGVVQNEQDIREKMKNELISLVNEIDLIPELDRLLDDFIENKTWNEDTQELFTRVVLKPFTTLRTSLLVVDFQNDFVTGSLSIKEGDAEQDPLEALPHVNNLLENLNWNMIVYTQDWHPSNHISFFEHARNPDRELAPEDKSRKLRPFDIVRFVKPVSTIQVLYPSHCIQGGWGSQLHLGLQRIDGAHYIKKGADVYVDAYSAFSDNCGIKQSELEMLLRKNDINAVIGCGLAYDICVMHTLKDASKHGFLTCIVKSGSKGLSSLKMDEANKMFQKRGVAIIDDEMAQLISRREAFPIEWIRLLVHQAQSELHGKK

B. burgdorferi PncA = B. burgdorferi PncA (Borreliella burgdorferi, UniProt G1FKW2); test: Naam inhibition assay, B. burgdorferi PncA; assay type: biochemical, Borrelia burgdorferi
mice = details: cited from earlier work
Nan-Iav TRPV channels = details: cited from earlier work

NC(=O)c1cccnc1 [NAM, nicotinamide]
effect on climbing scores (Drosophila flies; 2 or 5 mM): no significant effect
effect on climbing scores (Drosophila flies; feeding high concentrations (> 10 mM)): reduced the climbing scores
turnover number relative to wild-type Naam ([1]; A265E substitution): ~ 22%

O=Cc1cnccc1C(F)(F)F [TNAH, 4-(trifluoromethyl)nicotinaldehyde]
number of eggs laid [2]: significantly reduced the number of eggs laid

CC1=NNC(=O)N(/N=C/c2cccnc2)C1 [pymetrozine]
sensitivity of Naam knockdown flies (Drosophila flies; in vivo): still sensitive

NC(=O)c1cnccc1C(F)(F)F [TFNA-AM, 4-trifluoromethylnicotinamide]
reduction of climbing ability compared with FL (Drosophila flies; 2 mM, after 1 hour of feeding, score at 30 s): more effective than FL
difference to FL in reduction of climbing ability (Drosophila flies; 2 mM, after 3 hours of feeding, score at 30 s): not significant
effect on climbing scores in combination with NAM (Drosophila flies; 10 or 20 μM combined with NAM): significantly synergized the toxicity of NAM
negative geotaxis (climbing index at 30 s) (Drosophila flies; control flies, 2 mM for 3 hours): < 15%
climbing index (at 30 s) (Drosophila flies; in vivo): 68% and 52%
concentration that suppressed negative geotaxis (Drosophila flies; in vivo): ≥ 20 µM
effect of Naam knockdown on climbing index (Drosophila flies; in vivo): had no effect
effect on negative geotaxis (Drosophila flies; in vivo): virtually abolished
effect on negative geotaxis of Naam^A265E flies (Drosophila flies; in vivo): did not impair negative geotaxis
sensitivity of heterozygous control flies in climbing assays (Drosophila flies; in vivo): as sensitive as wild-type flies
effect on climbing scores, alone (Drosophila flies; low doses (10 or 20 μM) alone): negligible effects
Ki [3]: 720 nM
enzymatic activity of Naam in the presence of compound ([3]; 100 μM): markedly reduced the enzyme activity
resistance based on increase in Ki vs wild-type Naam [4]: 7.5 fold
Ki [5]: 80 nM
Ki [6]: 600 nM
Ki [7]: 1090 nM
Ki [8]: 16700 nM
fold less sensitive than the honey bee Naam1 ([8]; Ki Naam2 vs Naam1): 21 fold
fold less sensitive than the aphid Naam ([8]; Ki Naam2 vs aphid Naam): 209 fold
sensitivity of PNC-1 (C. elegans PNC-1): neither PNC-1 nor PNC-2 was sensitive
sensitivity of PNC-2 (C. elegans PNC-2): neither PNC-1 nor PNC-2 was sensitive
Ki (B. burgdorferi PncA): 2370 nM
resistance based on increase in Ki vs wild-type Naam [1]: 415.7 fold
LD50 (median lethal dose) (mice): > 2000 mg/kg
activation of heterologously expressed Nan-Iav TRPV channels (Nan-Iav TRPV channels): neither FL nor its metabolite TFNA-AM activates

CC(=O)N1C(=O)N(NCc2cccnc2)Cc2cc(C(F)(C(F)(F)F)C(F)(F)F)ccc21 [pyrifluquinazon]
sensitivity of Naam knockdown flies (Drosophila flies; in vivo): still sensitive

O=Cc1cccnc1 [NAH, Nicotinaldehyde]
effect on flies in climbing assays (Drosophila flies; even at 5 mM): no significant effect
Ki [3]: 330 nM
number of eggs laid [2]: significantly reduced the number of eggs laid
